Reference: PubChem BioAssay (NCI)
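The concentration for 50% growth inhibition is given as GI50. TGI: concentration producing complete growth inhibition.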

What was measured:
Experiment in all cases: NCI-60 cell line screen, 384-well format
A498 renal = test system: A498 renal
A549 NSCLC = test system: A549 NSCLC
ACHN renal = test system: ACHN renal
BT-549 breast = test system: BT-549 breast
CAKI-1 renal = test system: CAKI-1 renal
CCRF-CEM leukemia = test system: CCRF-CEM leukemia
COLO 205 colon = test system: COLO 205 colon
DU-145 prostate = test system: DU-145 prostate
EKVX NSCLC = test system: EKVX NSCLC
HCT-116 colon = test system: HCT-116 colon
HCT-15 colon = test system: HCT-15 colon
HL-60(TB) leukemia = test system: HL-60(TB) leukemia
HOP-62 NSCLC = test system: HOP-62 NSCLC
HS 578T breast = test system: HS 578T breast
HT29 colon = test system: HT29 colon
IGROV1 ovarian = test system: IGROV1 ovarian
K-562 leukemia = test system: K-562 leukemia
KM12 colon = test system: KM12 colon
LOX IMVI melanoma = test system: LOX IMVI melanoma
M14 melanoma = test system: M14 melanoma
MALME-3M melanoma = test system: MALME-3M melanoma
MCF7 breast = test system: MCF7 breast
MDA-MB-231 breast = test system: MDA-MB-231 breast
MDA-MB-435 melanoma = test system: MDA-MB-435 melanoma
MDA-MB-468 breast = test system: MDA-MB-468 breast
MOLT-4 leukemia = test system: MOLT-4 leukemia
NCI-H226 lung = test system: NCI-H226 lung
NCI-H23 lung = test system: NCI-H23 lung
NCI-H322M lung = test system: NCI-H322M lung
NCI-H460 NSCLC = test system: NCI-H460 NSCLC
NCI-H522 lung = test system: NCI-H522 lung
NCI/ADR-RES ovarian = test system: NCI/ADR-RES ovarian
OVCAR-3 ovarian = test system: OVCAR-3 ovarian
OVCAR-4 ovarian = test system: OVCAR-4 ovarian
PC-3 prostate = test system: PC-3 prostate
RPMI-8226 leukemia = test system: RPMI-8226 leukemia
RXF 393 renal = test system: RXF 393 renal
SF-268 CNS = test system: SF-268 CNS
SF-295 CNS = test system: SF-295 CNS
SF-539 CNS = test system: SF-539 CNS
SK-MEL-2 melanoma = test system: SK-MEL-2 melanoma
SK-MEL-28 melanoma = test system: SK-MEL-28 melanoma
SK-MEL-5 melanoma = test system: SK-MEL-5 melanoma
SK-OV-3 ovarian = test system: SK-OV-3 ovarian
SN12C renal = test system: SN12C renal
SNB-19 CNS = test system: SNB-19 CNS
SNB-75 CNS = test system: SNB-75 CNS
SR leukemia = test system: SR leukemia
SW-620 colon = test system: SW-620 colon
T-47D breast = test system: T-47D breast
TK-10 renal = test system: TK-10 renal
U251 glioblastoma = test system: U251 glioblastoma
UACC-257 melanoma = test system: UACC-257 melanoma
UACC-62 melanoma = test system: UACC-62 melanoma

With `Cc1noc2c1-c1ccccc1C(c1ccc(Cl)cc1)=N[C@H]2CC(N)=O` the GI50 (A498 renal) was 1.41 µM, the TGI (A498 renal) was 94.4 µM and the GI50 (A549 NSCLC) was 10.3 µM. The TGI (A549 NSCLC) was > 100 µM, the GI50 (ACHN renal) was 11.5 µM and the TGI (ACHN renal) was > 100 µM. The GI50 (BT-549 breast) was 0.292 µM, the TGI (BT-549 breast) was 18.7 µM and the GI50 (CAKI-1 renal) was 0.227 µM. The TGI (CAKI-1 renal) was 54.3 µM, the GI50 (CCRF-CEM leukemia) was 0.629 µM and the TGI (CCRF-CEM leukemia) was 22.9 µM. It also gave a GI50 (COLO 205 colon) of 0.78 µM, a TGI (COLO 205 colon) of 29 µM and a GI50 (DU-145 prostate) of 23.6 µM. The TGI (DU-145 prostate) was > 100 µM, the GI50 (EKVX NSCLC) was 36.2 µM and the TGI (EKVX NSCLC) was > 100 µM. The GI50 (HCT-116 colon) was 13.5 µM, the TGI (HCT-116 colon) was 54.7 µM and the GI50 (HCT-15 colon) was 0.442 µM. For the same compound, the TGI (HCT-15 colon) was 19.5 µM, the GI50 (HL-60(TB) leukemia) was 0.102 µM and the TGI (HL-60(TB) leukemia) was 0.229 µM. For the same compound, the GI50 (HOP-62 NSCLC) was 0.4 µM, the TGI (HOP-62 NSCLC) was 34.1 µM and the GI50 (HS 578T breast) was 0.292 µM. The TGI (HS 578T breast) was 28.3 µM, the GI50 (HT29 colon) was 0.508 µM and the TGI (HT29 colon) was 59.2 µM. The GI50 (IGROV1 ovarian) was 0.564 µM, the TGI (IGROV1 ovarian) was 30.1 µM and the GI50 (K-562 leukemia) was 0.697 µM. It also gave a TGI (K-562 leukemia) of 28 µM, a GI50 (KM12 colon) of 6.93 µM and a TGI (KM12 colon) of 44.3 µM. It also gave a GI50 (LOX IMVI melanoma) of 0.473 µM, a TGI (LOX IMVI melanoma) of 18.1 µM and a GI50 (M14 melanoma) of 13.6 µM. For the same compound, the TGI (M14 melanoma) was > 100 µM, the GI50 (MALME-3M melanoma) was 16.4 µM and the TGI (MALME-3M melanoma) was 61.4 µM. It also gave a GI50 (MCF7 breast) of 0.312 µM, a TGI (MCF7 breast) of 17 µM and a GI50 (MDA-MB-231 breast) of 0.612 µM. For the same compound, the TGI (MDA-MB-231 breast) was 94.4 µM, the GI50 (MDA-MB-435 melanoma) was 6.55 µM and the TGI (MDA-MB-435 melanoma) was 43.5 µM. It also gave a GI50 (MDA-MB-468 breast) of 0.685 µM, a TGI (MDA-MB-468 breast) of 23 µM and a GI50 (MOLT-4 leukemia) of 0.549 µM. The TGI (MOLT-4 leukemia) was 15.8 µM, the GI50 (NCI-H226 lung) was 12.2 µM and the TGI (NCI-H226 lung) was 44 µM. The GI50 (NCI-H23 lung) was 1.14 µM, the TGI (NCI-H23 lung) was 26.8 µM and the GI50 (NCI-H322M lung) was 3.01 µM. The TGI (NCI-H322M lung) was > 100 µM, the GI50 (NCI-H460 NSCLC) was 19 µM and the TGI (NCI-H460 NSCLC) was > 100 µM. The GI50 (NCI-H522 lung) was 0.04 µM, the TGI (NCI-H522 lung) was 0.455 µM and the GI50 (NCI/ADR-RES ovarian) was 0.639 µM. For the same compound, the TGI (NCI/ADR-RES ovarian) was 20.4 µM, the GI50 (OVCAR-3 ovarian) was 0.812 µM and the TGI (OVCAR-3 ovarian) was 29.8 µM. The GI50 (OVCAR-4 ovarian) was 0.367 µM, the TGI (OVCAR-4 ovarian) was 3.29 µM and the GI50 (PC-3 prostate) was 0.723 µM. The TGI (PC-3 prostate) was > 100 µM, the GI50 (RPMI-8226 leukemia) was 0.298 µM and the TGI (RPMI-8226 leukemia) was 12.5 µM. It also gave a GI50 (RXF 393 renal) of 11.6 µM, a TGI (RXF 393 renal) of 34.2 µM and a GI50 (SF-268 CNS) of 18.1 µM. For the same compound, the TGI (SF-268 CNS) was 67.7 µM, the GI50 (SF-295 CNS) was 18.8 µM and the TGI (SF-295 CNS) was > 100 µM. The GI50 (SF-539 CNS) was 13 µM, the TGI (SF-539 CNS) was > 100 µM and the GI50 (SK-MEL-2 melanoma) was 34.2 µM. The TGI (SK-MEL-2 melanoma) was 53.2 µM, the GI50 (SK-MEL-28 melanoma) was 21.4 µM and the TGI (SK-MEL-28 melanoma) was > 100 µM. The GI50 (SK-MEL-5 melanoma) was 1.03 µM, the TGI (SK-MEL-5 melanoma) was 21.3 µM and the GI50 (SK-OV-3 ovarian) was 0.491 µM. For the same compound, the TGI (SK-OV-3 ovarian) was 38.8 µM, the GI50 (SN12C renal) was 24.2 µM and the TGI (SN12C renal) was > 100 µM. The GI50 (SNB-19 CNS) was 4.91 µM, the TGI (SNB-19 CNS) was > 100 µM and the GI50 (SNB-75 CNS) was 15.7 µM. For the same compound, the TGI (SNB-75 CNS) was > 100 µM, the GI50 (SR leukemia) was 0.0478 µM and the TGI (SR leukemia) was 1.43 µM. For the same compound, the GI50 (SW-620 colon) was 21.8 µM, the TGI (SW-620 colon) was 71.7 µM and the GI50 (T-47D breast) was 6.48 µM. For the same compound, the TGI (T-47D breast) was 82 µM, the GI50 (TK-10 renal) was 0.504 µM and the TGI (TK-10 renal) was 34.3 µM. For the same compound, the GI50 (U251 glioblastoma) was 10.2 µM, the TGI (U251 glioblastoma) was > 100 µM and the GI50 (UACC-257 melanoma) was 16.4 µM. For the same compound, the TGI (UACC-257 melanoma) was > 100 µM, the GI50 (UACC-62 melanoma) was 0.268 µM and the TGI (UACC-62 melanoma) was 42.1 µM.
